Measurements taken from the supplement of paper PMC10307832.

Key:
Experiment in all cases: relative viability (nuclei count vs DMSO), 5 days (fraction); higher = more cells survive
[1] = compound: CN(C)C(=N)NC(=N)N [Metformin] + CS(=O)(=O)CCNCc1ccc(-c2ccc3ncnc(Nc4ccc(OCc5cccc(F)c5)c(Cl)c4)c3c2)o1 [Lapatinib] (partner 2 µM)
Procedure, shortened: (§1)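 Medians of duplicate plates are given as relative viability. That measure is the nuclei count in treated wells divided by the count in vehicle wells. Counts were taken on 4× images of lung cancer cell lines in 1536-well plates, 5 days after pin-tool dosing the day after seeding with one drug alone or a fixed anchor-drug dose plus five library-drug doses (not always all listed) in √10 steps.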

[2] = compound: N#CC1(c2ccc(NC(=O)c3cccnc3NCc3ccncc3)cc2)CCCC1 [Apatinib] + C[C@@H](Oc1cc(-c2cnn(C3CCNCC3)c2)cnc1N)c1c(Cl)ccc(F)c1Cl [Crizotinib] (partner 1 µM)
Procedure, shortened: as §1

[3] = compound: N#CC1(c2ccc(NC(=O)c3cccnc3NCc3ccncc3)cc2)CCCC1 [Apatinib] + O=C(c1cc(Cc2n[nH]c(=O)c3ccccc23)ccc1F)N1CCN(C(=O)C2CC2)CC1 [Olaparib] (partner 8 µM)
Procedure, shortened: as §1

[4] = compound: CN(C)C(=N)NC(=N)N [Metformin] + Cc1nc(Nc2ncc(C(=O)Nc3c(C)cccc3Cl)s2)cc(N2CCN(CCO)CC2)n1 [Dasatinib] (partner 0.075 µM)
Procedure, shortened: as §1

Cell Line	relative viability ([1]; first compound 31.62 µM)	relative viability ([1]; first compound 100 µM)	relative viability ([1]; first compound 316.23 µM)	relative viability ([1]; first compound 1000 µM)	relative viability ([2]; first compound 0.08 µM)	relative viability ([2]; first compound 0.253 µM)	relative viability ([2]; first compound 0.8 µM)	relative viability ([2]; first compound 2.53 µM)	relative viability ([2]; first compound 8 µM)	relative viability ([3]; first compound 0.08 µM)	relative viability ([3]; first compound 0.253 µM)	relative viability ([3]; first compound 0.8 µM)	relative viability ([3]; first compound 2.53 µM)	relative viability ([3]; first compound 8 µM)	relative viability ([4]; first compound 31.62 µM)	relative viability ([4]; first compound 100 µM)	relative viability ([4]; first compound 316.23 µM)	relative viability ([4]; first compound 1000 µM)	relative viability ([1]; first compound 10 µM)	relative viability ([4]; first compound 10 µM)
201T	1.08	1.07	0.989	1	1.02	1.04	0.996	1.03	0.992	0.872	0.817	0.789	0.9	0.749	0.579	0.63	0.53	0.559		
A549	0.934	0.909	0.722	0.923	0.818	0.917	0.737	0.61	0.56	0.329	0.382	0.414	0.367	0.302					0.946	
A-427	1.06	1.04	0.994	0.951	0.902	0.969	0.919	0.808	0.705	0.66	0.71	0.73	0.641	0.612	0.722	0.676	0.74	0.695	0.943	0.53
ABC-1	1.12	1.4	1.59	0.851		1.42	1.11	0.932	0.614		0.957	0.626	0.769	0.638	0.73	0.659	0.316	0.31	1.53	0.414
BEN	1.12	1.15	0.925	0.583	0.957	1	0.94	0.671	0.65	1.35	1.24	1.13	0.987	0.774	0.409	0.34	0.281	0.414	0.976	0.421
CAL-12T	0.801	0.794	0.618	0.736	0.801	0.569	0.694	0.695	0.459	0.723	0.673	0.647	0.638	0.583	0.58	0.479	0.357	0.515	0.645	0.471
COR-L23	0.969	0.734	0.773	1.07	0.627	0.647	0.648	0.52	0.565	0.355	0.377	0.324	0.273	0.286	0.436	0.413	0.393	0.121	1.21	0.496
COR-L 105	0.36	0.462	0.426	0.405	0.871	0.696	0.796	0.727	0.586	0.794	0.802	0.737	0.543	0.672	0.542	0.44	0.33	0.348	0.415	0.452
Calu-6	1.03	0.979	0.913	1.03	0.789	0.855	0.726	0.599	0.594	0.618	0.648	0.541	0.426	0.393					0.864	
